For orientation: viability, T/C means the result in the treated group divided by that in the control group, in per cent.
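Further: spheroids exposed to the agents for seven days before readout; percent of vehicle control viability with DMSO wells as 100%.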

For one assay, the system named is 435261-313-R-J1-PDC complex spheroid viability. The assay is described as follows: Anticancer human tumor 435261-313-R-J1-PDC patient-derived colon adenocarcinoma cell line growth inhibition [GQUAD]. Particulars: second compound 0.0316 µM; first compound 3.16 µM; hits give low values. The gist of the method: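 Multi-cell-type spheroids of tumor cells with HUVEC and mesenchymal stem cells, treated with drug combinations. Concentrations descend in half-log steps from near clinical Cmax, or from 10 microM where Cmax is unknown; viability read-out.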
As for `CC1COCCN1c1cc(-c2ccnn2C)c2ccnc(-c3ccn[nH]3)c2n1` (stereo unspecified) + Cc1cnc(CNC(=O)c2c(=O)c3ccc(N4CCCN(C)CC4)nc3n3c2sc2ccccc23)cn1, the viability, T/C is 36.2%.
For `CC1COCCN1c1cc(C2(S(C)(=N)=O)CC2)nc(-c2ccnc3[nH]ccc23)n1` (stereo unspecified) + Cc1cnc(CNC(=O)c2c(=O)c3ccc(N4CCCN(C)CC4)nc3n3c2sc2ccccc23)cn1, the viability, T/C is 49.2%.
On the same count and under the same terms, then `COc1ccc([C@@H](O)c2cc(-c3ncnc4cc(N5CCOCC5)ccc34)c(F)cc2Cl)nn1` + Cc1cnc(CNC(=O)c2c(=O)c3ccc(N4CCCN(C)CC4)nc3n3c2sc2ccccc23)cn1, with 27.8%.

Staying with this assay, now noted: second compound 0.0316 µM; first compound 10 µM; hits give low values.
As for `O=C(NO)c1cnc(N2CCN(S(=O)(=O)c3ccc4ccccc4c3)CC2)nc1` + Cc1[nH]c2ccc(F)cc2c1-c1nc2c3cccnc3c3ncccc3c2[nH]1, the viability, T/C was 0.68%.
On the same count and under the same terms, with `CC(C)n1c(=O)n(C)c2cnc3cc(F)c(-c4ccc(OCCCN5CCCCC5)nc4)cc3c21` + Cc1cnc(CNC(=O)c2c(=O)c3ccc(N4CCCN(C)CC4)nc3n3c2sc2ccccc23)cn1 the figure was 32.5%.
Still for that read-out and setting: with `CC1COCCN1c1cc(-c2ccnn2C)c2ccnc(-c3ccn[nH]3)c2n1` (stereo unspecified) + Cc1cnc(CNC(=O)c2c(=O)c3ccc(N4CCCN(C)CC4)nc3n3c2sc2ccccc23)cn1 the figure was 23.9%.
The same measure, in the same setting: then `CC1COCCN1c1cc(C2(S(C)(=N)=O)CC2)nc(-c2ccnc3[nH]ccc23)n1` (stereo unspecified) + Cc1cnc(CNC(=O)c2c(=O)c3ccc(N4CCCN(C)CC4)nc3n3c2sc2ccccc23)cn1, with 42.7%.
In the case of `COc1ccc([C@@H](O)c2cc(-c3ncnc4cc(N5CCOCC5)ccc34)c(F)cc2Cl)nn1` + Cc1cnc(CNC(=O)c2c(=O)c3ccc(N4CCCN(C)CC4)nc3n3c2sc2ccccc23)cn1, the viability, T/C is 20.3%.

The assay is the same for the next values; noted with them: second compound 0.1 µM; first compound 0.0316 µM; hits give low values.
With `O=C(NO)c1cnc(N2CCN(S(=O)(=O)c3ccc4ccccc4c3)CC2)nc1` + Cc1[nH]c2ccc(F)cc2c1-c1nc2c3cccnc3c3ncccc3c2[nH]1, the viability, T/C was 72.8%.
The same measure, in the same setting: with `CC(C)n1c(=O)n(C)c2cnc3cc(F)c(-c4ccc(OCCCN5CCCCC5)nc4)cc3c21` + Cc1cnc(CNC(=O)c2c(=O)c3ccc(N4CCCN(C)CC4)nc3n3c2sc2ccccc23)cn1 the figure was 61%.
Same read-out and setting: then `CC1COCCN1c1cc(-c2ccnn2C)c2ccnc(-c3ccn[nH]3)c2n1` (stereo unspecified) + Cc1cnc(CNC(=O)c2c(=O)c3ccc(N4CCCN(C)CC4)nc3n3c2sc2ccccc23)cn1, with 61.8%.
Still for that read-out and setting: then `CC1COCCN1c1cc(C2(S(C)(=N)=O)CC2)nc(-c2ccnc3[nH]ccc23)n1` (stereo unspecified) + Cc1cnc(CNC(=O)c2c(=O)c3ccc(N4CCCN(C)CC4)nc3n3c2sc2ccccc23)cn1, with 41.4%.
Regarding `COc1ccc([C@@H](O)c2cc(-c3ncnc4cc(N5CCOCC5)ccc34)c(F)cc2Cl)nn1` + Cc1cnc(CNC(=O)c2c(=O)c3ccc(N4CCCN(C)CC4)nc3n3c2sc2ccccc23)cn1, the viability, T/C is 49.8%.

The assay is the same for the next values; noted with them: second compound 0.1 µM; first compound 0.1 µM; hits give low values.
`O=C(NO)c1cnc(N2CCN(S(=O)(=O)c3ccc4ccccc4c3)CC2)nc1` + Cc1[nH]c2ccc(F)cc2c1-c1nc2c3cccnc3c3ncccc3c2[nH]1: the viability, T/C was 79.5%.
On the same count and under the same terms, then `CC(C)n1c(=O)n(C)c2cnc3cc(F)c(-c4ccc(OCCCN5CCCCC5)nc4)cc3c21` + Cc1cnc(CNC(=O)c2c(=O)c3ccc(N4CCCN(C)CC4)nc3n3c2sc2ccccc23)cn1, with 61.6%; and `CC1COCCN1c1cc(-c2ccnn2C)c2ccnc(-c3ccn[nH]3)c2n1` (stereo unspecified) + Cc1cnc(CNC(=O)c2c(=O)c3ccc(N4CCCN(C)CC4)nc3n3c2sc2ccccc23)cn1, with 59.4%.
The same measure, in the same setting: then `CC1COCCN1c1cc(C2(S(C)(=N)=O)CC2)nc(-c2ccnc3[nH]ccc23)n1` (stereo unspecified) + Cc1cnc(CNC(=O)c2c(=O)c3ccc(N4CCCN(C)CC4)nc3n3c2sc2ccccc23)cn1, with 66.6%; and `COc1ccc([C@@H](O)c2cc(-c3ncnc4cc(N5CCOCC5)ccc34)c(F)cc2Cl)nn1` + Cc1cnc(CNC(=O)c2c(=O)c3ccc(N4CCCN(C)CC4)nc3n3c2sc2ccccc23)cn1, with 65%.

Still in this assay, the particulars now being: second compound 0.1 µM; first compound 0.316 µM; hits give low values.
On to `O=C(NO)c1cnc(N2CCN(S(=O)(=O)c3ccc4ccccc4c3)CC2)nc1` + Cc1[nH]c2ccc(F)cc2c1-c1nc2c3cccnc3c3ncccc3c2[nH]1, for which the viability, T/C was 62%.
Still for that read-out and setting: with `CC(C)n1c(=O)n(C)c2cnc3cc(F)c(-c4ccc(OCCCN5CCCCC5)nc4)cc3c21` + Cc1cnc(CNC(=O)c2c(=O)c3ccc(N4CCCN(C)CC4)nc3n3c2sc2ccccc23)cn1 the figure was 63.3%.
The same measure, in the same setting: with `CC1COCCN1c1cc(-c2ccnn2C)c2ccnc(-c3ccn[nH]3)c2n1` (stereo unspecified) + Cc1cnc(CNC(=O)c2c(=O)c3ccc(N4CCCN(C)CC4)nc3n3c2sc2ccccc23)cn1 the figure was 52.4%; with `CC1COCCN1c1cc(C2(S(C)(=N)=O)CC2)nc(-c2ccnc3[nH]ccc23)n1` (stereo unspecified) + Cc1cnc(CNC(=O)c2c(=O)c3ccc(N4CCCN(C)CC4)nc3n3c2sc2ccccc23)cn1, 46.2%; with `COc1ccc([C@@H](O)c2cc(-c3ncnc4cc(N5CCOCC5)ccc34)c(F)cc2Cl)nn1` + Cc1cnc(CNC(=O)c2c(=O)c3ccc(N4CCCN(C)CC4)nc3n3c2sc2ccccc23)cn1, 48.9%.

The assay is the same for the next values; noted with them: second compound 0.1 µM; first compound 1 µM; hits give low values.
For `O=C(NO)c1cnc(N2CCN(S(=O)(=O)c3ccc4ccccc4c3)CC2)nc1` + Cc1[nH]c2ccc(F)cc2c1-c1nc2c3cccnc3c3ncccc3c2[nH]1, the viability, T/C was 30.2%.
Turning to `CC(C)n1c(=O)n(C)c2cnc3cc(F)c(-c4ccc(OCCCN5CCCCC5)nc4)cc3c21` + Cc1cnc(CNC(=O)c2c(=O)c3ccc(N4CCCN(C)CC4)nc3n3c2sc2ccccc23)cn1, the viability, T/C is 57.8%.
Take `CC1COCCN1c1cc(-c2ccnn2C)c2ccnc(-c3ccn[nH]3)c2n1` (stereo unspecified) + Cc1cnc(CNC(=O)c2c(=O)c3ccc(N4CCCN(C)CC4)nc3n3c2sc2ccccc23)cn1: the viability, T/C is 42.2%.

Values taken from PubChem BioAssay AID2060494 (Molecular Pharmacology Branch, DTP, NCI, 2025).
